What was measured:
[1] = tested on: rice flatsedge; assay: Test D flooded paddy test; type: in vivo, Cyperus iria; settings: 21 days, scale 0 to 100
Source text: (§1) Three plastic pots (ca. 16-cm diameter) per rate were partially filled with sterilized Tama silt loam soil comprising a 35:50:15 ratio of sand, silt and clay and 2.6% organic matter. Separate plantings for each of the three pots were as follows. Seeds from the U.S. of ducksalad (Heteranthera limosa (Sw.) Willd.), smallflower umbrella sedge (Cyperus difformis L.) and purple redstem (Ammannia coccinea Rottb.), were planted into one 16-cm pot for each rate. Seeds from the U.S. of rice flatsedge (Cyperus iria L.), bearded sprangletop (Leptochloa fascicularis (Lam.) Gray), one stand of 9 or 10 water seeded rice seedlings (Oryza sativa L. cv. ‘Japonica—M202’), and one stand of 6 transplanted rice seedlings (Oryza sativa L. cv. ‘Japonica—M202’) were planted into one 16-cm pot for each rate. Seeds from the U.S. of barnyardgrass (Echinochloa crus-galli (L.) Beauv.), late watergrass (Echinochloa oryzicola Vasinger), early watergrass (Echinochloa oryzoides (Ard.) Fritsch) and junglerice (Echinochloa colona (L.) Link) were planted into one 16-cm pot for each rate. Plantings were sequential so that crop and weed species were at the 2.0 to 2.5-leaf stage at time of treatment.
(§2) Potted plants were grown in a greenhouse with day/night temperature settings of 29.5/26.7° C., and supplemental balanced lighting was provided to maintain a 16-hour photoperiod. Test pots were maintained in the greenhouse until test completion.
(§3) At time of treatment, test pots were flooded to 3 cm above the soil surface, treated by application of test compounds directly to the paddy water, and then maintained at that water depth for the duration of the test. Effects of treatments on rice and weeds were visually evaluated by comparison to untreated controls after 21 days. Plant response ratings are reported on a 0 to 100 scale; where 0 is no effect and 100 is complete control. A dash (-) response means no test result.

[2] = tested on: early watergrass; assay: Test D flooded paddy test; type: in vivo, Echinochloa oryzoides; settings: 21 days, scale 0 to 100
Source text: as §1, §2, §3

[3] = tested on: Surinam grass; assay: Test E pre-/postemergence herbicide test; type: in vivo, Urochloa decumbens
Outline: (§4)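 Seeds were planted and treated preemergence with test chemicals in a non-phytotoxic solvent mixture containing surfactant; plants at 2 to 18 cm (1- to 4-leaf stage) received postemergence applications of the same formulation. After 12 to 14 days in a greenhouse, injury was visually rated against untreated controls on a 0 to 100 scale.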

[4] = tested on: green foxtail; assay: Test E pre-/postemergence herbicide test; type: in vivo, Setaria viridis
Outline: as §4

[5] = tested on: goosegrass; assay: Test E pre-/postemergence herbicide test; type: in vivo, Eleusine indica
Outline: as §4

[6] = tested on: pitted morningglory; assay: Test E pre-/postemergence herbicide test; type: in vivo, Ipomoea lacunosa
Outline: as §4

[7] = tested on: common ragweed; assay: Test E pre-/postemergence herbicide test; type: in vivo, Ambrosia elatior
Outline: as §4

[8] = tested on: common sowthistle; assay: Test E pre-/postemergence herbicide test; type: in vivo, Sonchus oleraceous
Outline: as §4

[9] = tested on: broadleaf signalgrass; assay: Test E pre-/postemergence herbicide test; type: in vivo, Brachiaria platyphylla
Outline: as §4

[10] = tested on: annual bluegrass; assay: Test E pre-/postemergence herbicide test; type: in vivo, Poa annua
Outline: as §4

[11] = tested on: Russian thistle; assay: Test E pre-/postemergence herbicide test; type: in vivo, Salsola kali
Outline: as §4

[12] = Postemergence, 500 g ai/ha, scale 0 to 100
[13] = Postemergence, 250 g ai/ha, scale 0 to 100
[14] = Preemergence, 62 g ai/ha, scale 0 to 100
[15] = Preemergence, 125 g ai/ha, scale 0 to 100
[16] = Preemergence, 500 g ai/ha, scale 0 (no effect) to 100 (complete control)
[17] = postemergence, 125 g ai/ha, scale 0 to 100
[18] = Preemergence, 250 g ai/ha, scale 0 (no effect) to 100 (complete control)

SMILES: CCNC(=O)c1ccnc(NC(=O)c2cc(C(C)(C)C)nn2CC)c1 [Compound 152]
- Plant response rating, Flatsedge, Rice ([1]; 8 g ai/ha): 75
- Plant response rating, Flatsedge, Rice ([1]; 16 g ai/ha): 75
- Plant response rating, Flatsedge, Rice ([1]; 32 g ai/ha): 75
- Plant response rating, Flatsedge, Rice ([1]; 64 g ai/ha): 90
- Plant response rating, Flatsedge, Rice ([1]; 125 g ai/ha): 95
- Plant response rating, Watergrass, Early ([2]; 8 g ai/ha): 0
- Plant response rating, Watergrass, Early ([2]; 16 g ai/ha): 0
- Plant response rating, Watergrass, Early ([2]; 32 g ai/ha): 0
- Plant response rating, Watergrass, Early ([2]; 64 g ai/ha): 0
- Plant response rating, Watergrass, Early ([2]; 125 g ai/ha): 45
- Plant response rating, Surinam Grass [3, 12]: 80
- Plant response rating, Surinam Grass [3, 13]: 60
- Plant response rating, Surinam Grass [3, 14]: 20
- Plant response rating, Surinam Grass [3, 15]: 50
- Plant response rating, Surinam Grass [3, 16]: 80
- Plant response rating, Surinam Grass [3, 17]: 30
- Plant response rating, Foxtail, Green [4, 12]: 85
- Plant response rating, Foxtail, Green [4, 13]: 85
- Plant response rating, Foxtail, Green [4, 14]: 20
- Plant response rating, Foxtail, Green [4, 15]: 70
- Plant response rating, Foxtail, Green [4, 18]: 85
- Plant response rating, Foxtail, Green [4, 16]: 100
- Plant response rating, Foxtail, Green [4, 17]: 40
- Plant response rating, Goosegrass [5, 12]: 75
- Plant response rating, Goosegrass [5, 13]: 60
- Plant response rating, Goosegrass [5, 14]: 30
- Plant response rating, Goosegrass [5, 15]: 70
- Plant response rating, Goosegrass [5, 18]: 80
- Plant response rating, Goosegrass [5, 16]: 90
- Plant response rating, Goosegrass [5, 17]: 50
- Plant response rating, Morningglory [6, 12]: 30
- Plant response rating, Morningglory [6, 13]: 20
- Plant response rating, Morningglory [6, 14]: 10
- Plant response rating, Morningglory [6, 15]: 10
- Plant response rating, Morningglory [6, 18]: 40
- Plant response rating, Morningglory [6, 16]: 40
- Plant response rating, Morningglory [6, 17]: 10
- Plant response rating, Ragweed [7, 12]: 75
- Plant response rating, Ragweed [7, 13]: 60
- Plant response rating, Ragweed [7, 14]: 20
- Plant response rating, Ragweed [7, 15]: 60
- Plant response rating, Ragweed [7, 18]: 80
- Plant response rating, Ragweed [7, 16]: 80
- Plant response rating, Ragweed [7, 17]: 50
- Plant response rating, Sowthistle [8, 12]: 100
- Plant response rating, Sowthistle [8, 13]: 90
- Plant response rating, Sowthistle [8, 14]: 80
- Plant response rating, Sowthistle [8, 15]: 80
- Plant response rating, Sowthistle [8, 18]: 95
- Plant response rating, Sowthistle [8, 16]: 95
- Plant response rating, Signalgrass [9, 12]: 70
- Plant response rating, Signalgrass [9, 13]: 60
- Plant response rating, Signalgrass [9, 14]: 10
- Plant response rating, Signalgrass [9, 15]: 40
- Plant response rating, Signalgrass [9, 18]: 70
- Plant response rating, Signalgrass [9, 16]: 80
- Plant response rating, Signalgrass [9, 17]: 20
- Plant response rating, Bluegrass [10, 12]: 85
- Plant response rating, Bluegrass [10, 13]: 85
- Plant response rating, Bluegrass [10, 14]: 60
- Plant response rating, Bluegrass [10, 15]: 80
- Plant response rating, Bluegrass [10, 18]: 95
- Plant response rating, Bluegrass [10, 16]: 95
- Plant response rating, Bluegrass [10, 17]: 60
- Plant response rating, Thistle [11, 12]: 80
- Plant response rating, Thistle [11, 13]: 80
- Plant response rating, Thistle [11, 14]: 20
- Plant response rating, Thistle [11, 15]: 20
- Plant response rating, Thistle [11, 16]: 100

Reference: patent publication US20060069132A1, “Azolecarboxamide herbicides” (priority 2004, published 2006)
